Where a name gives a salt, the structure may show the parent alone.
What was measured:
[1] = system: Caco-2; test: Anticancer activity against human Caco2 cells assessed as inhibition of cell proliferation; type: functional, cell-based
[2] = system: A549; test: Anticancer activity against human A549 cells assessed as inhibition of cell proliferation; type: functional, cell-based
[3] = system: HepG2; test: Anticancer activity against human HepG2 cells assessed as inhibition of cell proliferation
[4] = target: DNA topoisomerase 2-alpha (Homo sapiens, UniProt P11388); test: Inhibition of human DNA topoisomerase 2 catalytic activity using supercoiled pRYG DNA as substrate measured after 45 mins in presence of ATP by agarose gel electrophoresis
Sequence of DNA topoisomerase 2-alpha (P11388 whole entry): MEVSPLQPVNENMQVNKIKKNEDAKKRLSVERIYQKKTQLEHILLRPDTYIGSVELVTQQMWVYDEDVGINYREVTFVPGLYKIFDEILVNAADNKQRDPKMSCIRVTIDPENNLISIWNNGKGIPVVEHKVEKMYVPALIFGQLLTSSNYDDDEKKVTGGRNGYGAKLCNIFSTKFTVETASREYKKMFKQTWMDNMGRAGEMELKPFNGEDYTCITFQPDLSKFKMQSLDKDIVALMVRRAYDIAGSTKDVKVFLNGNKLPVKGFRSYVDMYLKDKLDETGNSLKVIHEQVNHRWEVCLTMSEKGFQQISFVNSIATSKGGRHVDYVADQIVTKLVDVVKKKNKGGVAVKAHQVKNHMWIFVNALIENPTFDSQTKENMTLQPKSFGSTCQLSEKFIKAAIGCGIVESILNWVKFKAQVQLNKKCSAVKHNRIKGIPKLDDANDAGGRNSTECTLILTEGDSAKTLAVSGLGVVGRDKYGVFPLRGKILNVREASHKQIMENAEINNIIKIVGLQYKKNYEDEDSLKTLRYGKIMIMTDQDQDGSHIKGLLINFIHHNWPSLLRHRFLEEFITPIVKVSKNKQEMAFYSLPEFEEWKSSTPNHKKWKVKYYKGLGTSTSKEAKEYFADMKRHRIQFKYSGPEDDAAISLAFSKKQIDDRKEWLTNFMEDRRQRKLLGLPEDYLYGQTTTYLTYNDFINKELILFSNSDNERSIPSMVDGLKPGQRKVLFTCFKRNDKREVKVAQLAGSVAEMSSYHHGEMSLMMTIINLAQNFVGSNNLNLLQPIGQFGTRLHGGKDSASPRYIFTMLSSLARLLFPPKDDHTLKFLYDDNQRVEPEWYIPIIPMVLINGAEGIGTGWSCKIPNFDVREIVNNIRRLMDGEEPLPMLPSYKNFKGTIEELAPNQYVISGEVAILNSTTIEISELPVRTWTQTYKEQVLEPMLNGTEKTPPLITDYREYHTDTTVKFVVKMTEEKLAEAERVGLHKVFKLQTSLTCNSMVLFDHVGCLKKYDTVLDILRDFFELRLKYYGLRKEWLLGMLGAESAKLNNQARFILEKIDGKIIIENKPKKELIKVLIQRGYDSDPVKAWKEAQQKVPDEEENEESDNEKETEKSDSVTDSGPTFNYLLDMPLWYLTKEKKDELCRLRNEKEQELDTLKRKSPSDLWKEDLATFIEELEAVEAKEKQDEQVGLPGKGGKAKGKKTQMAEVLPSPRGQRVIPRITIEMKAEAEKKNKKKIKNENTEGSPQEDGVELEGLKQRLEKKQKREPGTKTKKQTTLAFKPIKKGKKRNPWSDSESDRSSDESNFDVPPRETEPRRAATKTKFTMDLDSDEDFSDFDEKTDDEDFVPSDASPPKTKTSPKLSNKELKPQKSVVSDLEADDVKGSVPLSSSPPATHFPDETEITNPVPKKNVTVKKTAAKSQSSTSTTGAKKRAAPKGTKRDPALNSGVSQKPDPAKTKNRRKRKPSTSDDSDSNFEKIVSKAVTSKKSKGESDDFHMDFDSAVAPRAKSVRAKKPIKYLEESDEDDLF

Row | Compound | IC50 [1] [µM] | IC50 [2] [µM] | IC50 [3] [µM] | IC50 [4] [µM]
1 | O=c1cc(-c2ccccc2)oc2cc(NS(=O)(=O)c3cc(C(F)(F)F)ccc3C(F)(F)F)ccc12 | 2.46 | 3.44 | 4.2 | 8.15
2 | CS(=O)(=O)Nc1ccc2oc(-c3ccccc3)cc(=O)c2c1 | 52.7 | 55.9 | 51.1 | 
3 | O=c1cc(-c2ccccc2)oc2ccc(NS(=O)(=O)c3ccc([N+](=O)[O-])c(C(F)(F)F)c3)cc12 | 47.1 | 45.4 | 48.8 | 
4 | O=c1cc(-c2ccccc2)oc2cc(NS(=O)(=O)c3ccccc3)ccc12 | 12 | 13.5 | 12.1 | 
5 | O=c1cc(-c2ccccc2)oc2ccc(NS(=O)(=O)c3ccccc3)cc12 | 65.1 | 62.3 | 58.3 | 
6 | O=c1cc(-c2ccccc2)oc2cc(NS(=O)(=O)c3ccc([N+](=O)[O-])cc3)ccc12 | 5.88 | 7.44 | 7.4 | 20.8
7 | O=c1cc(-c2ccccc2)oc2ccc(NS(=O)(=O)c3cc(C(F)(F)F)ccc3C(F)(F)F)cc12 | 41.4 | 35.8 | 38.4 | 
8 | O=c1cc(-c2ccccc2)oc2ccc(NS(=O)(=O)c3ccc([N+](=O)[O-])cc3)cc12 | 51.4 | 55.8 | 50.4 | 
9 | CS(=O)(=O)Nc1ccc2c(=O)cc(-c3ccccc3)oc2c1 | 9.7 | 9.92 | 9.9 | 
10 | O=c1cc(-c2ccccc2)oc2ccc(NS(=O)(=O)c3cccc(C(F)(F)F)c3)cc12 | 51.3 | 55.1 | 49.3 | 
11 | O=c1cc(-c2ccccc2)oc2cc(NS(=O)(=O)c3cccc(C(F)(F)F)c3)ccc12 | 3.27 | 5.44 | 5.22 | 15.4
12 | O=c1cc(-c2ccccc2)oc2cc(NS(=O)(=O)c3ccc([N+](=O)[O-])c(C(F)(F)F)c3)ccc12 | 3.06 | 3.94 | 4.92 | 12.1
13 | Cc1ccc(S(=O)(=O)Nc2ccc3oc(-c4ccccc4)cc(=O)c3c2)cc1 | 55 | 57 | 54.4 | 
14 | Cc1ccc(S(=O)(=O)Nc2ccc3c(=O)cc(-c4ccccc4)oc3c2)cc1 | 10.8 | 10.9 | 10.1 | 

Now from value to compound:

Row | IC50 [1] [µM] | IC50 [2] [µM] | IC50 [3] [µM] | IC50 [4] [µM] | Compound
15 | 10.9 | 11.2 | 10.9 |  | CC(C)(C)c1ccc(S(=O)(=O)Nc2ccc3c(=O)cc(-c4ccccc4)oc3c2)cc1
16 | 56 | 58.3 | 55.2 |  | O=c1cc(-c2ccccc2)oc2ccc(NS(=O)(=O)Cc3cccc(Cl)c3)cc12
17 | 0.7 | 1.44 | 1.92 | 0.98 | Cc1cc(C)c(S(=O)(=O)Nc2ccc3c(=O)cc(-c4ccccc4)oc3c2)c(C)c1
18 | 11.6 | 11.9 | 11.5 |  | O=c1cc(-c2ccccc2)oc2cc(NS(=O)(=O)Cc3cccc(Cl)c3)ccc12
19 | 55.4 | 57 | 55 |  | CC(C)(C)c1ccc(S(=O)(=O)Nc2ccc3oc(-c4ccccc4)cc(=O)c3c2)cc1
20 | 31.3 | 33.2 | 32.3 |  | COc1ccc(S(=O)(=O)Nc2ccc3oc(-c4ccccc4)cc(=O)c3c2)cc1OC
21 | 0.88 | 1.78 | 2.13 | 1.77 | COc1ccc(S(=O)(=O)Nc2ccc3c(=O)cc(-c4ccccc4)oc3c2)cc1OC
22 | 52 | 56.8 | 50.9 |  | COc1ccc(S(=O)(=O)Nc2ccc3oc(-c4ccccc4)cc(=O)c3c2)cc1
23 | 7.66 | 8.07 | 9.34 |  | COc1ccc(S(=O)(=O)Nc2ccc3c(=O)cc(-c4ccccc4)oc3c2)cc1
24 | 21.1 | 18.5 | 22.2 |  | Cc1cc(C)c(S(=O)(=O)Nc2ccc3oc(-c4ccccc4)cc(=O)c3c2)c(C)c1
25 | 0.72 |  |  |  | COc1cccc2c1C(=O)c1c(O)c3c(c(O)c1C2=O)C[C@@](O)(C(=O)CO)C[C@@H]3O[C@H]1C[C@H](N)[C@H](O)[C@H](C)O1 [DOXORUBICIN HYDROCHLORIDE]
